Test results reported in US8163768B2, “1,4-dihydropyridine-fused heterocycles, process for preparing the same, use and compositions containing them” (Aventis Pharma S.A.., priority 2005, dated 2012).

Each compound was assayed against T1, Aurora2 (Aurora-A) (Homo sapiens, UniProt O14965) (assay: Aurora 2 (Aurora A) kinase radioactivity scintillation assay using nickel chelate Flash plates). Conditions: 10 nM Aurora-A, 500 nM NuMA substrate, 1 μM ATP with [33P] ATP, 10 mM MgCl2, 30 minutes, 37° C.
T1 construct: Aurora-A: the full length recombinant protein including an N-terminal poly-histidine tail has been expressed in E. coli; poly-histidine (N); made in house; host or cells: E. coli
T1 sequence (O14965 1-403): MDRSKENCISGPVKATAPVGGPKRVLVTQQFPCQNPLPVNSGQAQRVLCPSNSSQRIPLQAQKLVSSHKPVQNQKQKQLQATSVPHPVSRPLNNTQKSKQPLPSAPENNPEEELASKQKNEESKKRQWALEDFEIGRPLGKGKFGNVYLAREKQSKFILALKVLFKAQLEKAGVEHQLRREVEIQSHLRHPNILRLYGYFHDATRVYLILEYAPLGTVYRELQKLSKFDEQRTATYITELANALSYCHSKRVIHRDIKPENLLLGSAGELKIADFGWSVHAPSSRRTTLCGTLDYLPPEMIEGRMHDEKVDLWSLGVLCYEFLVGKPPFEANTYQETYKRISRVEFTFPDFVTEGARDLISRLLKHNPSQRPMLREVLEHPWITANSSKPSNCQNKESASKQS
Format: biochemical
Description: (§1) Aurora 1 and 2 (Respectively. Aurora B and A)
(§2) The inhibitory effect of compounds with respect to the Aurora 1 and 2 kinases is determined with a radioactivity scintillation assay using nickel chelate.
(§3) The kinase activity of Aurora is measured by the phosphorylation of NuMA-histidine substrate in the presence of radiolabelled ATP ([^33P] ATP) using 96 well Flash plates where the nickel-chelate is linked to the surface of the microplate. The amount of ^33P incorporated to the substrate NuMA is proportional to the aurora activity.
(§4) The Flash plates used are nickel-chelate 96 well plates (Perkin Elmer, model SMP107).
(§5) The products to be evaluated are incubated in a 100 μl reaction volume per well in the presence of 10 nM of Aurora-B or Aurora-A, 500 nM of NuMA substrate in the following buffer: 50 mM of NaCl, 5 mM MgCl2, (Aurora-B) or 10 mM MgCl2 (Aurora-A) and 1 mM of DTT at 37° C.
(§6) 80 μL of enzyme/substrate incubation buffer is distributed in each well, followed by 10 μL of solution of compound to be measured with various concentrations. The reaction is started by adding 1 μM of ATP (final concentration) containing 0.2 μCi of [^33P] ATP (10 μL). After 30 minutes of incubation the reaction is stopped by removal of the reaction mixture and each well is washed twice with 300 μl of buffer Tris/HCl. The radioactivity is measured in each well using a Packard Top count scintillation counter instrument.
(§7) The enzymatic activity is expressed as counts per minute obtained in 30 minutes after subtraction of the background noise (reaction medium without enzyme). The measurement is expressed as percentage of inhibition of Aurora activity versus the control. To generate IC50 values, compounds of the invention are tested at different concentration and the percentage of inhibition are plotted as function of compound concentration, IC50s are calculated using the Xlfit 4 curve fitting software.
Cn1c2c(c(=O)n(C)c1=O)C(c1cccc(Oc3ccc(Cl)cc3)c1)c1c[nH]nc1N2 (stereo not shown) [Example 43, 4-[3-(4-Chloro-phenoxy)-phenyl]-6,8-dimethyl-2,4,8,9-tetrahydro-1,2,6,8,9-pentaaza-cyclopenta[b]naphthalene-5,7-dione; compound with trifluoro-acetic acid] was tested, and the IC50 was 9700 nM. Work on O=C1CN(CC(O)CN2CCOCC2)CC2=C1C(c1cccc(Oc3ccc(Cl)cc3)c1)c1c[nH]nc1N2 (stereo not shown) [Example 50, 4-[3-(4-Chloro-phenoxy)-phenyl]-7-(2-hydroxy-3-morpholin-4-yl-propyl)-2,4,6,7,8,9-hexahydro-pyrazolo[3,4-b]-1,7-naphthyridin-5-one; compound with trifluoro-acetic acid] yielded an IC50 of 227 nM. Compound Cc1noc(C)c1C(=O)N1CC(=O)C2=C(C1)Nc1n[nH]cc1C2c1cccc(Oc2ccc(Cl)cc2)c1 (stereo not shown) [Example 53, 4-[3-(4-Chloro-phenoxy)-phenyl]-7-(3,5-dimethyl-isoxazole-4-carbonyl)-2,4,6,7,8,9-hexahydro-pyrazolo[3,4-b]-1,7-naphthyridin-5-one; compound with trifluoro-acetic acid] has an IC50 of 7370 nM. O=C1CN(C(=O)c2ccno2)CC2=C1C(c1cccc(Oc3ccc(Cl)cc3)c1)c1c[nH]nc1N2 (stereo not shown) [Example 54, 4-[3-(4-Chloro-phenoxy)-phenyl]-7-(isoxazole-5-carbonyl)-2,4,6,7,8,9-hexahydro-pyrazolo[3,4-b]-1,7-naphthyridin-5-one; compound with trifluoro-acetic acid] was tested, and the IC50 was 6100 nM. Work on Cc1nnsc1C(=O)N1CC(=O)C2=C(C1)Nc1n[nH]cc1C2c1cccc(Oc2ccc(Cl)cc2)c1 (stereo not shown) [Example 55, 4-[3-(4-Chloro-phenoxy)-phenyl]-7-(4-methyl-[1,2,3]thiadiazole-5-carbonyl)-2,4,6,7,8,9-hexahydro-pyrazolo[3,4-b]-1,7-naphthyridin-5-one; compound with trifluoro-acetic acid] yielded an IC50 of 7200 nM. O=C1CNCC2=C1C(c1cccc(C(=O)NCc3ccc(OC(F)(F)F)cc3)c1)c1c[nH]nc1N2 (stereo not shown) [Example 60, 3-(5-Oxo-2,4,6,7,8,9-hexahydro-pyrazolo[3,4b]-1,7-naphthyridin-4-yl)-N-(4-trifluoromethoxy-benzyl)-benzamide; compound with trifluoro-acetic acid] showed an IC50 of 6500 nM. For O=C1CNCC2=C1C(c1cccc(C(=O)Nc3ccc(OC(F)(F)F)cc3)c1)c1c[nH]nc1N2 (stereo not shown) [Example 63, 3-(5-Oxo-2,4,6,7,8,9-hexahydro-pyrazolo[3,4b]-1,7-naphthyridin-4-yl)-N-(4-trifluoromethoxy-phenyl)-benzamide; compound with trifluoro-acetic acid], the IC50 was 3300 nM. Compound O=C1CNCC2=C1C(c1cccc(C(=O)Nc3cccc(OC(F)(F)F)c3)c1)c1c[nH]nc1N2 (stereo not shown) [Example 64, 3-(5-Oxo-2,4,6,7,8,9-hexahydro-pyrazolo[3,4b]-1,7-naphthyridin-4-yl)-N-(3-trifluoromethoxy-phenyl)-benzamide; compound with trifluoro-acetic acid] has an IC50 of 4100 nM. In the case of O=C1CNCC2=C1C(c1cccc(NC(=O)c3ccc(Cl)cc3)c1)c1c[nH]nc1N2 (stereo not shown) [Example 65, 4-Chloro-N-[3-(5-Oxo-2,4,6,7,8,9-hexahydro-pyrazolo[3,4b]-1,7-naphthyridin-4-yl)-phenyl]-benzamide; compound with trifluoro-acetic acid], the IC50 is reported as 630 nM. O=C(Nc1ccc(Cl)cc1)Nc1cccc(C2C3=C(CNCC3=O)Nc3n[nH]cc32)c1 (stereo not shown) [Example 67, 1-(4-Chloro-phenyl)-3-[3-(5-Oxo-2,4,6,7,8,9-hexahydro-pyrazolo[3,4b]-1,7-naphthyridin-4-yl)-phenyl]-urea; compound with trifluoro-acetic acid] showed an IC50 of 2000 nM.

What follows are compounds tested against T2, Aurora1 (Aurora-B) (Homo sapiens, UniProt Q96GD4) (assay: Aurora 1 (Aurora B) kinase radioactivity scintillation assay using nickel chelate Flash plates). Conditions: 10 nM Aurora-B (co expressed with C3 fragment of INCEP), 500 nM NuMA substrate, 1 μM ATP with [33P] ATP, 5 mM MgCl2, 30 minutes, 37° C.
T2 construct: Aurora-B: the full length protein (His tagged in N-terminal) has been co expressed in SF9 cells; poly-histidine (N); made in house; host or cells: SF9 cells
T2 sequence (Q96GD4 whole entry, species assumed, the tested form may be a part): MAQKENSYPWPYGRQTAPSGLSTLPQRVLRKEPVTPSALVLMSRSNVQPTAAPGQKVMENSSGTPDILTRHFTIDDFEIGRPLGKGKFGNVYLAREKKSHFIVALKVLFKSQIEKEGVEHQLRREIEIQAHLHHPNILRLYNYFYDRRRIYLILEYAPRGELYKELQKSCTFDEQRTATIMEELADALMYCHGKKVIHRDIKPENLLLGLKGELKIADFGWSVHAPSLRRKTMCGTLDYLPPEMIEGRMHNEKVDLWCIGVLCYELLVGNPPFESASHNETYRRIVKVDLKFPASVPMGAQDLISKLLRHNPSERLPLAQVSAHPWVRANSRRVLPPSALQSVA
T2 sequence (Q9NQS7 821-918 partner limits assumed, species assumed): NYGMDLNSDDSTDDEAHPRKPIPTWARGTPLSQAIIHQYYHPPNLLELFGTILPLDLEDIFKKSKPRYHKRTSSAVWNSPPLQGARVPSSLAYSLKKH
Format: biochemical
Description: as §1, §2, §3, §4, §5, §6, §7
O=C1CCCC2=C1[C@H](c1ccc(Sc3nc4ccccc4[nH]3)o1)c1c[nH]nc1N2 (single isomer, unassigned) [120a (+), 4-[5-(1H-Benzimidazol-2-ylsulfanyl)-furan-2-yl]-1,4,6,7,8,9-hexahydro-pyrazolo[3,4-b]quinolin-5-one] was tested, and the IC50 was 4 nM. O=C1CCCC2=C1[C@H](c1ccc(Sc3nc4ccccc4[nH]3)o1)c1c[nH]nc1N2 (single isomer, unassigned) [120b (−), 4-[5-(1H-Benzimidazol-2-ylsulfanyl)-furan-2-yl]-1,4,6,7,8,9-hexahydro-pyrazolo[3,4-b]quinolin-5-one] was tested, and the IC50 was 75 nM. For O=C1CCCC2=C1C(c1ccc(Sc3nc4ccccc4[nH]3)o1)c1cn[nH]c1N2 (stereo not shown) [Example 3, 4-[5-(1H-Benzimidazol-2-ylsulfanyl)-furan-2-yl]-1,4,6,7,8,9-hexahydro-pyrazolo[3,4-b]quinolin-5-one], the IC50 was 8 nM. In the case of O=C1CNCC2=C1C(c1ccc(Sc3nc4ccccc4[nH]3)o1)c1c[nH]nc1N2 (stereo not shown) [Example 20, 4-[5-(1H-Benzimidazol-2-ylsulfanyl)-furan-2-yl]-2,4,6,7,8,9-hexahydro-pyrazolo[3,4-b]-1,7-naphthyridin-5-one; compound with trifluoro-acetic acid], the IC50 is reported as 83 nM. O=C1CCCC2=C1C(c1ccc(Sc3ccccn3)o1)c1c[nH]nc1N2 (stereo not shown) [Example 40] showed an IC50 of 3400 nM. Cn1c(Sc2ccc(C3C4=C(CNCC4=O)Nc4n[nH]cc43)o2)nc2ccccc21 (stereo not shown) [Example 83, 4-[5-(1-Methyl-1H-benzimidazol-2-ylsulfanyl)-furan-2-yl]-2,4,6,7,8,9-hexahydro-pyrazolo[3,4-b]-1,7-naphthyridin-5-one; compound with trifluoro-acetic acid] gave an IC50 of 5020 nM. For CCOC(=O)c1[nH]cc2c1NC1=C(C(=O)CNC1)C2c1ccc(Sc2nc3ccccc3[nH]2)o1 (stereo not shown) [Example 104, 9-[5-(1H-Benzimidazol-2-ylsulfanyl)-furan-2-yl]-8-oxo-4,5,6,7,8,9-hexahydro-2H-pyrrolo[3,4-b]-1,7-naphthyridine-3-carboxylic acid ethyl ester; compound with trifluoro-acetic acid], the IC50 was 7 nM. Work on CCOC(=O)c1[nH]cc2c1NC1=C(C(=O)CC(C)(C)C1)C2c1ccc(Sc2nc3ccccc3[nH]2)o1 (stereo not shown) [Example 106, 9-[5-(1H-Benzimidazol-2-ylsulfanyl)-furan-2-yl]-6,6-dimethyl-8-oxo-4,5,6,7,8,9-hexahydro-2H-pyrrolo[3,4-b]quinoline-3-carboxylic acid ethyl ester] yielded an IC50 of 31 nM. CCOC(=O)c1[nH]cc2c1NC1=C(C(=O)CCC1)C2c1ccc(Sc2nc3cc(F)c(F)cc3[nH]2)o1 (stereo not shown) [Example 114, 9-[5-(5,6-Difluoro-1H-benzimidazol-2-ylsulfanyl)-furan-2-yl]-8-oxo-4,5,6,7,8,9-hexahydro-2H-pyrrolo[3,4-b]quinoline-3-carboxylic acid ethyl ester] was tested, and the IC50 was 6 nM. Compound CCOC(=O)c1[nH]cc2c1NC1=C(C(=O)CCC1)C2c1ccc(Sc2nc3ccc(F)c(F)c3[nH]2)o1 (stereo not shown) [Example 121, 9-[5-(6,7-Difluoro-1H-benzimidazol-2-ylsulfanyl)-furan-2-yl]-8-oxo-4,5,6,7,8,9-hexahydro-2H-pyrrolo[3,4-b]quinoline-3-carboxylic acid ethyl ester] has an IC50 of 7 nM. CCOC(=O)c1[nH]cc2c1NC1=C(C(=O)CCC1)C2c1ccc(Sc2nc3c(F)c(F)c(F)cc3[nH]2)o1 (stereo not shown) [Example 122, 8-Oxo-9-[5-(4,5,6-trifluoro-1H-benzimidazol-2-ylsulfanyl)-furan-2-yl]-4,5,6,7,8,9-hexahydro-2H-pyrrolo[3,4-b]quinoline-3-carboxylic acid ethyl ester] gave an IC50 of 7 nM. Work on CCOC(=O)c1[nH]cc2c1NC1=C(C(=O)CCC1)C2c1ccc(Sc2nc3cc(Cl)ccc3[nH]2)o1 (stereo not shown) [Example 129, 9-[5-(5-Chloro-1H-benzimidazol-2-ylsulfanyl)-furan-2-yl]-8-oxo-4,5,6,7,8,9-hexahydro-2H-pyrrolo[3,4-b]quinoline-3-carboxylic acid ethyl ester] yielded an IC50 of 10 nM.
